Measured values as given in PubChem BioAssay (NCI).
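These data come from cells grown in 96-well plates and exposed to compound for 48 hours at five concentrations. The concentration for full growth arrest is given as TGI.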

How the values were obtained:
Assay in all cases: NCI tumour cell line growth inhibition, 48 h
SF-268 CNS = test system: SF-268 CNS
KM12 colon = test system: KM12 colon
M14 melanoma = test system: M14 melanoma
KM20L2 colon = test system: KM20L2 colon
RXF 393 renal = test system: RXF 393 renal
IGROV1 ovarian = test system: IGROV1 ovarian
UACC-62 melanoma = test system: UACC-62 melanoma
NCI-H226 lung = test system: NCI-H226 lung
COLO 205 colon = test system: COLO 205 colon
786-0 renal = test system: 786-0 renal
SF-539 CNS = test system: SF-539 CNS
UACC-257 melanoma = test system: UACC-257 melanoma
RPMI-8226 leukemia = test system: RPMI-8226 leukemia
NCI-H522 lung = test system: NCI-H522 lung
NCI-H460 lung = test system: NCI-H460 lung
SF-295 CNS = test system: SF-295 CNS
A549 NSCLC = test system: A549 NSCLC
SNB-75 CNS = test system: SNB-75 CNS
SNB-78 CNS = test system: SNB-78 CNS
DMS 114 small cell lung = test system: DMS 114 small cell lung
M19-MEL melanoma = test system: M19-MEL melanoma
K-562 leukemia = test system: K-562 leukemia
HT29 colon = test system: HT29 colon
SN12C renal = test system: SN12C renal
HCC-2998 colon = test system: HCC-2998 colon
SW-620 colon = test system: SW-620 colon
LOX IMVI melanoma = test system: LOX IMVI melanoma
SNB-19 CNS = test system: SNB-19 CNS
CAKI-1 renal = test system: CAKI-1 renal
SR leukemia = test system: SR leukemia
SK-MEL-28 melanoma = test system: SK-MEL-28 melanoma
MALME-3M melanoma = test system: MALME-3M melanoma
HCT-116 colon = test system: HCT-116 colon
MOLT-4 leukemia = test system: MOLT-4 leukemia
HL-60(TB) leukemia = test system: HL-60(TB) leukemia
U251 CNS = test system: U251 CNS
DLD-1 colon = test system: DLD-1 colon
UO-31 renal = test system: UO-31 renal
OVCAR-3 ovarian = test system: OVCAR-3 ovarian
HOP-62 NSCLC = test system: HOP-62 NSCLC
ACHN renal = test system: ACHN renal
HOP-92 NSCLC = test system: HOP-92 NSCLC
NCI-H23 lung = test system: NCI-H23 lung
OVCAR-5 ovarian = test system: OVCAR-5 ovarian
HCT-15 colon = test system: HCT-15 colon
SK-OV-3 ovarian = test system: SK-OV-3 ovarian
OVCAR-8 ovarian = test system: OVCAR-8 ovarian
TK-10 renal = test system: TK-10 renal
SK-MEL-5 melanoma = test system: SK-MEL-5 melanoma
LXFL 529 NSCLC = test system: LXFL 529 NSCLC
CCRF-CEM leukemia = test system: CCRF-CEM leukemia
OVCAR-4 ovarian = test system: OVCAR-4 ovarian
MDA-MB-435 = test system: MDA-MB-435
T-47D breast = test system: T-47D breast
MCF7 breast = test system: MCF7 breast
A498 renal = test system: A498 renal
EKVX NSCLC = test system: EKVX NSCLC
PC-3 prostate = test system: PC-3 prostate
DU-145 prostate = test system: DU-145 prostate
SK-MEL-2 melanoma = test system: SK-MEL-2 melanoma
MDA-MB-231 breast = test system: MDA-MB-231 breast
HS 578T breast = test system: HS 578T breast
NCI/ADR-RES ovarian = test system: NCI/ADR-RES ovarian
MDA-N = test system: MDA-N
BT-549 breast = test system: BT-549 breast

For `CCC(=O)N(O)C(C)(C)C`, the TGI (SF-268 CNS) was greater than 100 µM, the TGI (KM12 colon) was greater than 100 µM and the TGI (M14 melanoma) was greater than 100 µM. For the same compound, the TGI (KM20L2 colon) was greater than 100 µM, the TGI (RXF 393 renal) was greater than 100 µM and the TGI (IGROV1 ovarian) was greater than 100 µM. It also gave a TGI (UACC-62 melanoma) greater than 100 µM, a TGI (NCI-H226 lung) greater than 100 µM and a TGI (COLO 205 colon) greater than 100 µM. For the same compound, the TGI (786-0 renal) was greater than 100 µM, the TGI (SF-539 CNS) was greater than 100 µM and the TGI (UACC-257 melanoma) was greater than 100 µM. For the same compound, the TGI (RPMI-8226 leukemia) was greater than 100 µM, the TGI (NCI-H522 lung) was greater than 100 µM and the TGI (NCI-H460 lung) was greater than 100 µM. For the same compound, the TGI (SF-295 CNS) was greater than 100 µM, the TGI (A549 NSCLC) was greater than 100 µM and the TGI (SNB-75 CNS) was greater than 100 µM. It also gave a TGI (SNB-78 CNS) greater than 100 µM, a TGI (DMS 114 small cell lung) greater than 100 µM and a TGI (M19-MEL melanoma) greater than 100 µM. For the same compound, the TGI (K-562 leukemia) was greater than 100 µM, the TGI (HT29 colon) was greater than 100 µM and the TGI (SN12C renal) was greater than 100 µM. For the same compound, the TGI (HCC-2998 colon) was greater than 100 µM, the TGI (SW-620 colon) was greater than 100 µM and the TGI (LOX IMVI melanoma) was greater than 100 µM. It also gave a TGI (SNB-19 CNS) greater than 100 µM, a TGI (CAKI-1 renal) greater than 100 µM and a TGI (SR leukemia) greater than 100 µM. For the same compound, the TGI (SK-MEL-28 melanoma) was greater than 100 µM, the TGI (MALME-3M melanoma) was greater than 100 µM and the TGI (HCT-116 colon) was greater than 100 µM. It also gave a TGI (MOLT-4 leukemia) greater than 100 µM, a TGI (HL-60(TB) leukemia) greater than 100 µM and a TGI (U251 CNS) greater than 100 µM. For the same compound, the TGI (DLD-1 colon) was greater than 100 µM, the TGI (UO-31 renal) was greater than 100 µM and the TGI (OVCAR-3 ovarian) was greater than 100 µM. It also gave a TGI (HOP-62 NSCLC) greater than 100 µM, a TGI (ACHN renal) greater than 100 µM and a TGI (HOP-92 NSCLC) greater than 100 µM. For the same compound, the TGI (NCI-H23 lung) was greater than 100 µM, the TGI (OVCAR-5 ovarian) was greater than 100 µM and the TGI (HCT-15 colon) was greater than 100 µM. The TGI (SK-OV-3 ovarian) was greater than 100 µM, the TGI (OVCAR-8 ovarian) was greater than 100 µM and the TGI (TK-10 renal) was greater than 100 µM. For the same compound, the TGI (SK-MEL-5 melanoma) was greater than 100 µM, the TGI (LXFL 529 NSCLC) was greater than 100 µM and the TGI (CCRF-CEM leukemia) was greater than 100 µM. For the same compound, the TGI (OVCAR-4 ovarian) was greater than 100 µM.
Work on `O=C1C(=C(I)I)c2ccccc2-c2ccccc21` yielded a TGI (SF-268 CNS) of 20.4 µM, a TGI (MDA-MB-435) of 5.58 µM and a TGI (KM12 colon) of 24.6 µM. For the same compound, the TGI (M14 melanoma) was 9.15 µM, the TGI (T-47D breast) was greater than 100 µM and the TGI (RXF 393 renal) was 3.22 µM. It also gave a TGI (IGROV1 ovarian) of 17.6 µM, a TGI (MCF7 breast) of 13.8 µM and a TGI (UACC-62 melanoma) of 10.7 µM. For the same compound, the TGI (A498 renal) was 30.6 µM, the TGI (NCI-H226 lung) was 36.4 µM and the TGI (COLO 205 colon) was 3.66 µM. It also gave a TGI (EKVX NSCLC) of 9.45 µM, a TGI (786-0 renal) of 4.33 µM and a TGI (PC-3 prostate) of 13.5 µM. For the same compound, the TGI (SF-539 CNS) was 3.61 µM, the TGI (DU-145 prostate) was 11.2 µM and the TGI (UACC-257 melanoma) was 5.04 µM. It also gave a TGI (RPMI-8226 leukemia) of 3.95 µM, a TGI (NCI-H522 lung) of 2.61 µM and a TGI (SK-MEL-2 melanoma) of 19.7 µM. It also gave a TGI (NCI-H460 lung) of 33.9 µM, a TGI (SF-295 CNS) of 31.8 µM and a TGI (A549 NSCLC) of 34.7 µM. For the same compound, the TGI (SNB-75 CNS) was 12.8 µM, the TGI (K-562 leukemia) was greater than 34.9 µM and the TGI (HT29 colon) was 12.2 µM. The TGI (SN12C renal) was 4.31 µM, the TGI (HCC-2998 colon) was 7.54 µM and the TGI (MDA-MB-231 breast) was 4.31 µM. It also gave a TGI (HS 578T breast) of 19.6 µM, a TGI (SW-620 colon) of 8.13 µM and a TGI (LOX IMVI melanoma) of 5.26 µM. For the same compound, the TGI (SNB-19 CNS) was 27.5 µM, the TGI (NCI/ADR-RES ovarian) was 12.2 µM and the TGI (CAKI-1 renal) was 7.12 µM. For the same compound, the TGI (SR leukemia) was 10.2 µM, the TGI (SK-MEL-28 melanoma) was 7.94 µM and the TGI (MDA-N) was 4.6 µM. It also gave a TGI (MALME-3M melanoma) of 4.08 µM, a TGI (HCT-116 colon) of 6.55 µM and a TGI (MOLT-4 leukemia) of 6.48 µM. The TGI (HL-60(TB) leukemia) was greater than 21.3 µM, the TGI (U251 CNS) was 17.6 µM and the TGI (UO-31 renal) was 4.7 µM. It also gave a TGI (OVCAR-3 ovarian) of 3.82 µM, a TGI (HOP-62 NSCLC) of 24.3 µM and a TGI (ACHN renal) of 5.59 µM. It also gave a TGI (HOP-92 NSCLC) of 5.66 µM, a TGI (NCI-H23 lung) of 16.3 µM and a TGI (OVCAR-5 ovarian) of 17.1 µM. It also gave a TGI (HCT-15 colon) of 8.51 µM, a TGI (SK-OV-3 ovarian) of 28 µM and a TGI (OVCAR-8 ovarian) of 7.72 µM. For the same compound, the TGI (TK-10 renal) was 3.86 µM, the TGI (BT-549 breast) was 15.5 µM and the TGI (SK-MEL-5 melanoma) was 19.7 µM. The TGI (CCRF-CEM leukemia) was 2.48 µM and the TGI (OVCAR-4 ovarian) was 10.9 µM.
